Tests used:
SNB-75 = experiment: NCI-60 antiproliferative screen (SRB); details: Homo sapiens, SNB-75, 48 h, read-out: Growth inhibition (%)
Experimental: Anticancer activity was tested against 60 cancer cell lines (NCI-60) after 48h treatments with a single dosage of 10 μM of compounds by using sulforhodamine B assay [39] on the traditional 96-well platform. […] The human cancer cell lines of the NCI-60 panel are grown in RPMI 1640 medium supplemented with 5% FBS (fetal bovine serum) and 2 mM L-glutamine. […] For further analysis of promising compounds, five dose screens were performed against the NCI-60 panel. Drug treatments are performed in 5 doses using 10-fold or ½ log dose dilutions.

OVCAR-5 = experiment: NCI-60 antiproliferative screen (SRB); assay type: cell-based, human; details: Homo sapiens; 10 µM single dose, 48 h; OVCAR-5 (Ovarian); read-out: Growth inhibition (%)
A498 = experiment: NCI-60 antiproliferative screen (SRB); assay type: cell-based, human; details: Homo sapiens; 10 µM single dose, 48 h; A498 (Renal); read-out: Growth inhibition (%)
SW-620 = experiment: NCI-60 antiproliferative screen (SRB); assay type: cell-based, human; details: Homo sapiens; 10 µM single dose, 48 h; SW-620 (Colon); read-out: Growth inhibition (%)
HOP-62 = experiment: NCI-60 antiproliferative screen (SRB); assay type: cell-based, human; details: Homo sapiens; 10 µM single dose, 48 h; HOP-62 (NSCLC); read-out: Growth inhibition (%)
COLO 205 = experiment: NCI-60 antiproliferative screen (SRB); assay type: cell-based, human; details: Homo sapiens; 10 µM single dose, 48 h; COLO 205 (Colon); read-out: Growth inhibition (%)
SN12C = experiment: NCI-60 antiproliferative screen (SRB); assay type: cell-based, human; details: Homo sapiens; 10 µM single dose, 48 h; SN12C (Renal); read-out: Growth inhibition (%)
CCRF-CEM = experiment: NCI-60 antiproliferative screen (SRB); assay type: cell-based, human; details: Homo sapiens; 10 µM single dose, 48 h; CCRF-CEM (Leukemia); read-out: Growth inhibition (%)
OVCAR-8 = experiment: NCI-60 antiproliferative screen (SRB); assay type: cell-based, human; details: Homo sapiens; 10 µM single dose, 48 h; OVCAR-8 (Ovarian); read-out: Growth inhibition (%)
RPMI-8226 = experiment: NCI-60 antiproliferative screen (SRB); assay type: cell-based, human; details: Homo sapiens; 10 µM single dose, 48 h; RPMI-8226 (Leukemia); read-out: Growth inhibition (%)
SF-539 = experiment: NCI-60 antiproliferative screen (SRB); assay type: cell-based, human; details: Homo sapiens; 10 µM single dose, 48 h; SF-539 (CNS); read-out: Growth inhibition (%)
SK-MEL-28 = experiment: NCI-60 antiproliferative screen (SRB); assay type: cell-based, human; details: Homo sapiens; 10 µM single dose, 48 h; SK-MEL-28 (Melanoma); read-out: Growth inhibition (%)
SF-268 = experiment: NCI-60 antiproliferative screen (SRB); assay type: cell-based, human; details: Homo sapiens; 10 µM single dose, 48 h; SF-268 (CNS); read-out: Growth inhibition (%)
A549/ATCC = experiment: NCI-60 antiproliferative screen (SRB); assay type: cell-based, human; details: Homo sapiens; 10 µM single dose, 48 h; A549/ATCC (NSCLC); read-out: Growth inhibition (%)
ACHN = experiment: NCI-60 antiproliferative screen (SRB); assay type: cell-based, human; details: Homo sapiens; 10 µM single dose, 48 h; ACHN (Renal); read-out: Growth inhibition (%)
SK-MEL-5 = experiment: NCI-60 antiproliferative screen (SRB); assay type: cell-based, human; details: Homo sapiens; 10 µM single dose, 48 h; SK-MEL-5 (Melanoma); read-out: Growth inhibition (%)
MCF7 = experiment: NCI-60 antiproliferative screen (SRB); assay type: cell-based, human; details: Homo sapiens; 10 µM single dose, 48 h; MCF7 (Breast); read-out: Growth inhibition (%)
HCC-2998 = experiment: NCI-60 antiproliferative screen (SRB); assay type: cell-based, human; details: Homo sapiens; 10 µM single dose, 48 h; HCC-2998 (Colon); read-out: Growth inhibition (%)
T-47D = experiment: NCI-60 antiproliferative screen (SRB); assay type: cell-based, human; details: Homo sapiens, T47D; 10 µM single dose, 48 h; T-47D (Breast); read-out: Growth inhibition (%)
NCI-H23 = experiment: NCI-60 antiproliferative screen (SRB); assay type: cell-based, human; details: Homo sapiens; 10 µM single dose, 48 h; NCI-H23 (NSCLC); read-out: Growth inhibition (%)
MOLT-4 = experiment: NCI-60 antiproliferative screen (SRB); assay type: cell-based; details: Homo sapiens; 10 µM single dose, 48 h; MOLT-4 (Leukemia); read-out: Growth inhibition (%)
KM12 = experiment: NCI-60 antiproliferative screen (SRB); assay type: cell-based, human; details: Homo sapiens; 10 µM single dose, 48 h; KM12 (Colon); read-out: Growth inhibition (%)
HCT-15 = experiment: NCI-60 antiproliferative screen (SRB); assay type: cell-based, human; details: Homo sapiens; 10 µM single dose, 48 h; HCT-15 (Colon); read-out: Growth inhibition (%)
SK-MEL-2 = experiment: NCI-60 antiproliferative screen (SRB); assay type: cell-based, human; details: Homo sapiens; 10 µM single dose, 48 h; SK-MEL-2 (Melanoma); read-out: Growth inhibition (%)
HOP-92 = experiment: NCI-60 antiproliferative screen (SRB); assay type: cell-based, human; details: Homo sapiens; 10 µM single dose, 48 h; HOP-92 (NSCLC); read-out: Growth inhibition (%)
MDA-MB-231 = experiment: NCI-60 antiproliferative screen (SRB); assay type: cell-based, human; details: Homo sapiens; 10 µM single dose, 48 h; MDA-MB-231 (Breast); read-out: Growth inhibition (%)
TK-10 = experiment: NCI-60 antiproliferative screen (SRB); assay type: cell-based, human; details: Homo sapiens; 10 µM single dose, 48 h; TK-10 (Renal); read-out: Growth inhibition (%)
SK-OV-3 = experiment: NCI-60 antiproliferative screen (SRB); assay type: cell-based, human; details: Homo sapiens; 10 µM single dose, 48 h; SK-OV-3 (Ovarian); read-out: Growth inhibition (%)
CAKI-1 = experiment: NCI-60 antiproliferative screen (SRB); assay type: cell-based, human; details: Homo sapiens; 10 µM single dose, 48 h; CAKI-1 (Renal); read-out: Growth inhibition (%)

Structure (SMILES)	inhibition at 10 µM (SNB-75) [%]	inhibition at 10 µM (OVCAR-5) [%]	inhibition at 10 µM (HOP-62) [%]	inhibition at 10 µM (COLO 205) [%]	inhibition at 10 µM (SN12C) [%]	inhibition at 10 µM (CCRF-CEM) [%]	inhibition at 10 µM (OVCAR-8) [%]	inhibition at 10 µM (RPMI-8226) [%]	inhibition at 10 µM (SF-539) [%]	inhibition at 10 µM (SK-MEL-28) [%]	inhibition at 10 µM (SF-268) [%]	inhibition at 10 µM (A549/ATCC) [%]	inhibition at 10 µM (ACHN) [%]	inhibition at 10 µM (SK-MEL-5) [%]	inhibition at 10 µM (MCF7) [%]	inhibition at 10 µM (HCC-2998) [%]	melting point [°C]	inhibition at 10 µM (T-47D) [%]	inhibition at 10 µM (NCI-H23) [%]	inhibition at 10 µM (MOLT-4) [%]	further results
O=C1Nc2ccccc2C1=Cc1ccc(OCc2ccccc2)cc1 (mixture of isomers) [Compound 5a, (E/Z)-3-[4-(Benzyloxy)benzylidene] indolin-2-one]	14.6	-2.24	-4.06	-13.1	6.16	0.52	2.34	1.13	-3.4	-7.21	-1.74	-3.26	-4.27	1.96	15.8	-13.1	220 to 223	0.85	-2.42	2.73	inhibition at 10 µM (A498): 7.9%; inhibition at 10 µM (SW-620): -7.33%; inhibition at 10 µM (KM12): -3.15%; inhibition at 10 µM (HCT-15): 0.04%; inhibition at 10 µM (SK-MEL-2): -4.59%; inhibition at 10 µM (HOP-92): -7%; inhibition at 10 µM (MDA-MB-231): -10%; inhibition at 10 µM (TK-10): -8.25%; inhibition at 10 µM (SK-OV-3): -5.78%; inhibition at 10 µM (CAKI-1): 2%
O=C1Nc2ccc(F)cc2C1=Cc1ccc(OCc2ccccc2)cc1 (mixture of isomers) [Compound 5b, (E/Z)-3-[4-(Benzyloxy)benzylidene]-5-fluoroindolin-2-one]	5.15	-0.99	-1.2	1.92	0.27	-10.8	-0.84	2.59	4.67	2.92	5.43	3.9	-7.3	-0.59	7.57	-9.12	244 to 248	3.79	1.73	-0.05	inhibition at 10 µM (SW-620): -2.34%; inhibition at 10 µM (KM12): 2.42%; inhibition at 10 µM (HCT-15): 3.51%; inhibition at 10 µM (HOP-92): 4.77%; inhibition at 10 µM (MDA-MB-231): 2.43%; inhibition at 10 µM (TK-10): 4.82%; inhibition at 10 µM (SK-OV-3): 0.16%; inhibition at 10 µM (CAKI-1): 8.23%
O=C1Nc2ccc(Cl)cc2C1=Cc1ccc(OCc2ccccc2)cc1 (mixture of isomers) [Compound 5c, (E/Z)-3-[4-(Benzyloxy)benzylidene]-5-chloroindolin-2-one]	13.1	-2.92	3.77	-6.62	0.7	0.21	-0.47	-3.85	4.12	-8.75	3.26	-0.99	-1.45	1.9	16	-3.96	214 to 216	4.11	-1.96	3.28	inhibition at 10 µM (A498): -2.37%; inhibition at 10 µM (SW-620): 1.08%; inhibition at 10 µM (KM12): -1.02%; inhibition at 10 µM (HCT-15): -4.25%; inhibition at 10 µM (SK-MEL-2): -0.35%; inhibition at 10 µM (HOP-92): 9.75%; inhibition at 10 µM (MDA-MB-231): -5.3%; inhibition at 10 µM (TK-10): -12.7%; inhibition at 10 µM (SK-OV-3): -1.7%; inhibition at 10 µM (CAKI-1): 13.4%
O=C1Nc2ccccc2C1=Cc1ccc(OCc2ccccn2)cc1 (mixture of isomers) [Compound 5e, (E/Z)-3-[4-(Pyridin-2-ylmethoxy]benzylidene) indolin-2-one]	34.7	5.53	25.6	-14.7	47.7	57.7	29.7	64	35.3	-0.76	27.3	29.2	33.6	48.4	50.8	1.6	221 to 224	54.9	21.4	62.5	inhibition at 10 µM (A498): 16.4%; inhibition at 10 µM (KM12): 61.3%; inhibition at 10 µM (HCT-15): 45.9%; inhibition at 10 µM (SK-MEL-2): -12.2%; inhibition at 10 µM (HOP-92): 69%; inhibition at 10 µM (TK-10): 12.7%; inhibition at 10 µM (SK-OV-3): 16.8%; inhibition at 10 µM (CAKI-1): 40.8%
O=C1Nc2cc(Cl)ccc2C1=Cc1ccc(OCc2ccccn2)cc1 (mixture of isomers) [Compound 5h, (E/Z)-6-Chloro-3-[4-(pyridin-2-ylmethoxy)benzylidene]indolin-2-one]	63.3	15.6	18.9	-3.47	24.9	53.7	13.6	32.4	57.7	-8.02	23.2	62.5	9.61	24	63.7	16.7	260 to 263	38	47.4	61.5	inhibition at 10 µM (A498): -11.5%; inhibition at 10 µM (KM12): 21.6%; inhibition at 10 µM (HCT-15): 45.5%; inhibition at 10 µM (SK-MEL-2): -10.3%; inhibition at 10 µM (HOP-92): 35.8%; inhibition at 10 µM (TK-10): -0.24%; inhibition at 10 µM (SK-OV-3): 4.39%; inhibition at 10 µM (CAKI-1): 28.8%
